PMC10811921 (Virology Journal, 2024)
pIC50: −log10 of the molar value.

Target: T1, furin (Homo sapiens, UniProt P09958)
T1 construct: recombinant soluble human furin
Test: fluorogenic protease assay with Pyr-RTKR-AMC substrate
Type: biochemical

T1 sequence (P09958 108-715): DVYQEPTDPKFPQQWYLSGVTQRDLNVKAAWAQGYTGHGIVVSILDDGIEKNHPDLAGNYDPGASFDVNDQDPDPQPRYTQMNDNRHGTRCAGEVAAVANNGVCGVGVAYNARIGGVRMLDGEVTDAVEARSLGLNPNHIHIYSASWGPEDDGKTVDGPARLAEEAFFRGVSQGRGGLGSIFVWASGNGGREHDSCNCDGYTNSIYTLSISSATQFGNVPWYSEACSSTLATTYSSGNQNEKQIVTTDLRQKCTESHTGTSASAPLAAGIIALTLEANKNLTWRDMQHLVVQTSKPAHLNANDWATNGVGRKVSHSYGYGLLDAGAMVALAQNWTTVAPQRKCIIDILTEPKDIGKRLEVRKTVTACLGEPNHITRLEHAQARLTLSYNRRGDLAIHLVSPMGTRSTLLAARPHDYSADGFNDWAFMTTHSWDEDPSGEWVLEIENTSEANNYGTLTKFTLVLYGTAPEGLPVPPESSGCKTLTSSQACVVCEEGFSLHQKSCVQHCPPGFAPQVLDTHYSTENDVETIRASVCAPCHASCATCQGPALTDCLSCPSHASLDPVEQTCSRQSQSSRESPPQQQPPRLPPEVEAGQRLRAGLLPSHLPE

Work on `O=c1c(O)c(-c2ccc(O)c(O)c2)oc2cc(O)cc(O)c12` [QC, quercetin] yielded a pIC50 of ~3.94.
